Data on one molecule can be found in ChEMBL document CHEMBL1649183, “Substrate-induced inactivation of the Escherichia coli AmiD N-acetylmuramoyl-L-alanine amidase highlights a new strategy to inhibit this class of enzyme” (Antimicrob Agents Chemother, 2009).

Activity calls are given as the source filed them. No cut-off for these calls is given here.

Experiment [1] deals with Escherichia coli. As to the kind of experiment: Inactivation of histidine6-tagged Escherichia coli LMG194 AmiD at 14 uM.
Experiment [2] has as its system Escherichia coli. The experiment in a line: Inactivation of histidine6-tagged Escherichia coli LMG194 AmiD at 27 uM.

Regarding `CC(=O)N[C@H]1[C@@H]2OC[C@@H](O2)[C@@H](O[C@@H]2O[C@H](CO)[C@@H](O)C(O)[C@H]2NC(C)=O)[C@@H]1O[C@@H](C)C(=O)N[C@@H](C)C(=O)N[C@H](CCC(=O)N[C@H](CCC[C@H](N)C(=O)O)C(=O)N[C@H](C)C(=O)O)C(=O)O` (single isomer, unassigned), the inhibition entry in the experiment with Escherichia coli [1] and in the experiment with Escherichia coli [2] was “Active” in each case.
